Measured values taken from the NIST ThermoML archive (doi:10.1021/je025657+).
“And” between values parts separate entries of the source, which are not always exact repeats. Equal values may be shown once.

Conditions: for vapor or sublimation pressure: Closed cell (Static) method

COC(F)(F)F [trifluoromethoxymethane]
Conditions	mass density [kg/m3]
240 K, 17 kPa, Gas	0.84
240 K, 25.1 kPa, Gas	1.25
240 K, 36.9 kPa, Gas	1.87
240 K, 517.1 kPa, Liquid	1262.64
240 K, 1011 kPa, Liquid	1263.83
240 K, 1516.2 kPa, Liquid	1265.03
240 K, 2014.7 kPa, Liquid	1266.21
240 K, 2517.3 kPa, Liquid	1267.38
240 K, 3024.1 kPa, Liquid	1268.56
240 K, 3529.6 kPa, Liquid	1269.72
240 K, 4031 kPa, Liquid	1270.86
240 K, 4515.5 kPa, Liquid	1271.95
240 K, 5038.9 kPa, Liquid	1273.12
240 K, 5511.8 kPa, Liquid	1274.16
240 K, 6024.7 kPa, Liquid	1275.29
240 K, 6511.7 kPa, Liquid	1276.35
240 K, 6981.1 kPa, Liquid	1277.36
250 K, 19.2 kPa, Gas	0.91
250 K, 28.3 kPa, Gas	1.34
250 K, 41.7 kPa, Gas	1.98
250 K, 61.2 kPa, Gas	2.94
250 K, 89.4 kPa, Gas	4.33
250 K, 505.1 kPa, Liquid	1236.18
250 K, 1008.8 kPa, Liquid	1237.55
250 K, 1508.8 kPa, Liquid	1238.91
250 K, 2020.1 kPa, Liquid	1240.28
250 K, 2517.2 kPa, Liquid	1241.59
250 K, 3037 kPa, Liquid	1242.95
250 K, 3530.8 kPa, Liquid	1244.22
250 K, 4030.5 kPa, Liquid	1245.49
250 K, 4537.2 kPa, Liquid	1246.78
250 K, 5042.6 kPa, Liquid	1248.05
250 K, 5550.6 kPa, Liquid	1249.31
250 K, 6026.5 kPa, Liquid	1250.48
250 K, 6529.6 kPa, Liquid	1251.71
250 K, 6975.1 kPa, Liquid	1252.79
260 K, 18.7 kPa, Gas	1.11
260 K, 27.6 kPa, Gas	1.53
260 K, 40.7 kPa, Gas	2.15
260 K, 59.9 kPa, Gas	3.03
260 K, 87.8 kPa, Gas	4.4
260 K, 127.7 kPa, Gas	6.4
260 K, 507.8 kPa, Liquid	1209.12
260 K, 1009.3 kPa, Liquid	1210.7
260 K, 1499.4 kPa, Liquid	1212.21
260 K, 2004.5 kPa, Liquid	1213.76
260 K, 2515.8 kPa, Liquid	1215.3
260 K, 3012.1 kPa, Liquid	1216.77
260 K, 3527.2 kPa, Liquid	1218.29
260 K, 4018 kPa, Liquid	1219.71
260 K, 4522 kPa, Liquid	1221.16
260 K, 5039.1 kPa, Liquid	1222.63
260 K, 5512.3 kPa, Liquid	1223.96
260 K, 6040.8 kPa, Liquid	1225.42
260 K, 6546.9 kPa, Liquid	1226.81
260 K, 6987.4 kPa, Liquid	1227.99
270 K, 23.7 kPa, Gas	1.1
270 K, 35 kPa, Gas	1.6
270 K, 51.5 kPa, Gas	2.35
270 K, 75.7 kPa, Gas	3.49
270 K, 110.6 kPa, Gas	5.15
270 K, 160.6 kPa, Gas	7.63
270 K, 500.8 kPa, Liquid	1180.45
270 K, 1001.8 kPa, Liquid	1182.27
270 K, 1515.4 kPa, Liquid	1184.1
270 K, 1999.2 kPa, Liquid	1185.81
270 K, 2500.7 kPa, Liquid	1187.53
270 K, 3017 kPa, Liquid	1189.29
270 K, 3484.3 kPa, Liquid	1190.86
270 K, 4038.2 kPa, Liquid	1192.68
270 K, 4513.3 kPa, Liquid	1194.24
270 K, 5047.2 kPa, Liquid	1195.96
270 K, 5542.1 kPa, Liquid	1197.53
270 K, 6036.1 kPa, Liquid	1199.08
270 K, 6529.6 kPa, Liquid	1200.61
270 K, 6973.6 kPa, Liquid	1201.96
280 K, 27.5 kPa, Gas	1.21
280 K, 40.5 kPa, Gas	1.79
280 K, 59.6 kPa, Gas	2.61
280 K, 87.6 kPa, Gas	3.89
280 K, 128.3 kPa, Gas	5.75
280 K, 186.4 kPa, Gas	8.53
280 K, 269 kPa, Gas	12.52
280 K, 454.4 kPa, Liquid	1150.61
280 K, 985.2 kPa, Liquid	1152.87
280 K, 1507.7 kPa, Liquid	1155.03
280 K, 1992.9 kPa, Liquid	1157.02
280 K, 2510.8 kPa, Liquid	1159.1
280 K, 3011.5 kPa, Liquid	1161.06
280 K, 3522.2 kPa, Liquid	1163.04
280 K, 4037.2 kPa, Liquid	1164.99
280 K, 4483.8 kPa, Liquid	1166.68
280 K, 4942.1 kPa, Liquid	1168.36
280 K, 5533.2 kPa, Liquid	1170.51
280 K, 5977.4 kPa, Liquid	1172.09
280 K, 6516.6 kPa, Liquid	1173.99
280 K, 7008.7 kPa, Liquid	1175.7
290 K, 18.9 kPa, Gas	0.76
290 K, 30.4 kPa, Gas	1.28
290 K, 50.3 kPa, Gas	2.25
290 K, 74.2 kPa, Gas	3.26
290 K, 109 kPa, Gas	4.83
290 K, 159.4 kPa, Gas	7.09
290 K, 232.8 kPa, Gas	10.52
290 K, 338.9 kPa, Gas	15.78
290 K, 493.5 kPa, Liquid	1119.5
290 K, 976.7 kPa, Liquid	1121.93
290 K, 979.3 kPa, Liquid	1121.87
290 K, 1475.8 kPa, Liquid	1124.36
290 K, 1999.9 kPa, Liquid	1126.86
290 K, 2466.6 kPa, Liquid	1129.04
290 K, 2989.9 kPa, Liquid	1131.43
290 K, 3492.2 kPa, Liquid	1133.73
290 K, 4029.3 kPa, Liquid	1136.09
290 K, 4505 kPa, Liquid	1138.14
290 K, 4999.6 kPa, Liquid	1140.25
290 K, 5546.1 kPa, Liquid	1142.55
290 K, 6046.4 kPa, Liquid	1144.61
290 K, 6496.3 kPa, Liquid	1146.42
290 K, 6981.5 kPa, Liquid	1148.28
300 K, 31.3 kPa, Gas	1.25
300 K, 46.2 kPa, Gas	1.89
300 K, 68 kPa, Gas	2.77
300 K, 100.1 kPa, Gas	4.12
300 K, 146.6 kPa, Gas	6.12
300 K, 214 kPa, Gas	9.08
300 K, 306.3 kPa, Gas	13.34
300 K, 439.5 kPa, Gas	19.94
300 K, 589.3 kPa, Gas	28.11
300 K, 617 kPa, Liquid	1086.54
300 K, 658.2 kPa, Liquid	1086.45
300 K, 913.6 kPa, Liquid	1088.34
300 K, 1058.4 kPa, Liquid	1088.91
300 K, 1466.6 kPa, Liquid	1091.63
300 K, 1522.9 kPa, Liquid	1091.63
300 K, 1998.6 kPa, Liquid	1094.68
300 K, 2016.1 kPa, Liquid	1094.48
300 K, 2526.4 kPa, Liquid	1097.64
300 K, 2545.5 kPa, Liquid	1097.41
300 K, 3023.5 kPa, Liquid	1100.35
300 K, 3063.2 kPa, Liquid	1100.24
300 K, 3486.7 kPa, Liquid	1102.83
300 K, 3535.6 kPa, Liquid	1102.72
300 K, 4015.2 kPa, Liquid	1105.57
300 K, 4063.9 kPa, Liquid	1105.45
300 K, 4499.8 kPa, Liquid	1108.05
300 K, 4569.3 kPa, Liquid	1107.99
300 K, 5014.6 kPa, Liquid	1110.58
300 K, 5140.6 kPa, Liquid	1110.81
300 K, 5517 kPa, Liquid	1113.05
300 K, 5669.7 kPa, Liquid	1113.35
300 K, 6023 kPa, Liquid	1115.44
300 K, 6155.2 kPa, Liquid	1115.66
300 K, 6499 kPa, Liquid	1117.65
300 K, 6683.2 kPa, Liquid	1118.07
300 K, 6960.3 kPa, Liquid	1119.71
300 K, 7091.7 kPa, Liquid	1119.94
310 K, 38.3 kPa, Gas	1.49
310 K, 56.5 kPa, Gas	2.22
310 K, 83.1 kPa, Gas	3.29
310 K, 121.9 kPa, Gas	4.87
310 K, 178.2 kPa, Gas	7.22
310 K, 258.9 kPa, Gas	10.69
310 K, 372.5 kPa, Gas	15.8
310 K, 528.4 kPa, Gas	23.4
310 K, 742.6 kPa, Gas	35.17
310 K, 813.1 kPa, Liquid	1051.26
310 K, 836.7 kPa, Liquid	1051.44
310 K, 861.7 kPa, Liquid	1051.63
310 K, 1006.3 kPa, Liquid	1053.19
310 K, 1033.6 kPa, Liquid	1052.9
310 K, 1512.4 kPa, Liquid	1056.88
310 K, 1533.9 kPa, Liquid	1056.54
310 K, 2000.5 kPa, Liquid	1060.31
310 K, 2046.2 kPa, Liquid	1060.13
310 K, 2498.6 kPa, Liquid	1063.7
310 K, 2539.9 kPa, Liquid	1063.48
310 K, 3027.3 kPa, Liquid	1067.18
310 K, 3099.5 kPa, Liquid	1067.15
310 K, 3517 kPa, Liquid	1070.31
310 K, 3564.5 kPa, Liquid	1070.1
310 K, 4017.7 kPa, Liquid	1073.4
310 K, 4131.5 kPa, Liquid	1073.59
310 K, 4531.7 kPa, Liquid	1076.5
310 K, 5049.8 kPa, Liquid	1079.54
310 K, 5149.7 kPa, Liquid	1079.59
310 K, 5542 kPa, Liquid	1082.34
310 K, 5630.8 kPa, Liquid	1082.31
310 K, 6021.1 kPa, Liquid	1085.02
310 K, 6210.4 kPa, Liquid	1085.5
310 K, 6538.6 kPa, Liquid	1087.83
310 K, 6998 kPa, Liquid	1090.22
310 K, 7191.1 kPa, Liquid	1090.69
320 K, 46.4 kPa, Gas	1.77
320 K, 68.4 kPa, Gas	2.64
320 K, 100.6 kPa, Gas	3.89
320 K, 147.5 kPa, Gas	5.74
320 K, 215.4 kPa, Gas	8.49
320 K, 312.9 kPa, Gas	12.57

Liquid
Conditions	mass density	vapor or sublimation pressure
240 K	1261.55 kg/m3 and 1261.54 kg/m3	–
250 K	1235.07 kg/m3	–
260 K	1208.02 kg/m3	–
270 K	1179.44 kg/m3	–
280 K	1150.07 kg/m3	–
290 K	1119.31 kg/m3	–
300 K	1086.15 kg/m3 and 1086.47 kg/m3 and 1086.56 kg/m3	607.7 kPa and 607.3 kPa
305 K	–	698.7 kPa
310 K	1054.67 kg/m3 [middle of 4 runs]	800.9 kPa and 800.7 kPa and 801.7 kPa
315 K	–	914.3 kPa

Gas, Burnett expansion method
Conditions	mass density [kg/m3]
300 K, 124.2 kPa	5.136
300 K, 170.5 kPa	7.128
300 K, 183.4 kPa	7.703
300 K, 251.4 kPa	10.75
300 K, 268.7 kPa	11.56
300 K, 364.7 kPa	16.13
300 K, 388.1 kPa	17.29
300 K, 519.4 kPa	24.16
300 K, 550.3 kPa	25.89
310 K, 128.7 kPa	5.137
310 K, 177.1 kPa	7.139
310 K, 190.3 kPa	7.705
310 K, 261 kPa	10.74
310 K, 279.4 kPa	11.56
310 K, 380.4 kPa	16.14
310 K, 405 kPa	17.3
310 K, 545.9 kPa	24.27
310 K, 578.6 kPa	25.97
310 K, 759.9 kPa	36.24
320 K, 133.1 kPa	5.135
320 K, 183.4 kPa	7.139
320 K, 197.1 kPa	7.701
320 K, 270.9 kPa	10.74
320 K, 289.9 kPa	11.55
320 K, 395.7 kPa	16.14
